Several values for one entry are separate records, joined by “and”; a condition that tells them apart may be missing. Identical values can stand only once. Entries after “also recorded” stand apart in the source; their conditions may differ. Like-named read-outs stand apart in the source and are kept apart here.

The text below walks through data of article PMC10650714, “Double Attack to Oxidative Stress in Neurodegenerative Disorders: MAO-B and Nrf2 as Elected Targets” (Molecules, 2023).

The target in assay [1] is T1, recombinant hMAO-B (Homo sapiens, UniProt P27338).
T1 construct: purchased Fluka-Sigma-Aldrich s.r.l; (Italy); host or cells: Baculovirus infected BT1 cells
T1 sequence (P27338 1-520): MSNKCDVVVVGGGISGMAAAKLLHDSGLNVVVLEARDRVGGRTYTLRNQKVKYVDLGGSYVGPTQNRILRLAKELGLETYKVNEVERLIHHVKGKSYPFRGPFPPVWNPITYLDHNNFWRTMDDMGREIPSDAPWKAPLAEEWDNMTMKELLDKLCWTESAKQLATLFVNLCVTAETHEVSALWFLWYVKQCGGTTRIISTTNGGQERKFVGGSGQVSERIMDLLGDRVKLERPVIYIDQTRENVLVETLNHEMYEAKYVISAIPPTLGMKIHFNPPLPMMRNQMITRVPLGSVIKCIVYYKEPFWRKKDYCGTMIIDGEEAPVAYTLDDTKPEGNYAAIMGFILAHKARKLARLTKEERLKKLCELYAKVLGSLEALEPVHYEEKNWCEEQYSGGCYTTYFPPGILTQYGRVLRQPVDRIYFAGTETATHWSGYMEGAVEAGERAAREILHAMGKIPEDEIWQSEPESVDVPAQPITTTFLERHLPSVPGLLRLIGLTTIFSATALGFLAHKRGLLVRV
Briefly: hMAO-B activity assay (kynuramine, fluorimetric). As to conditions: for SI (selectivity index): calculated as hMAO-A Ki/hMAO-B Ki; for mechanism of hMAO-B inhibition: double reciprocal plots / global fit. Format: biochemical. The protocol:
Human recombinant hMAO-A and hMAO-B expressed in Baculovirus infected BT1 cells (5 mg/mL) and horseradish peroxidases were purchased from Fluka-Sigma-Aldrich s.r.l. (Italy). A Cary Eclipse fluorimeter (Varian Inc., Palo Alto, CA, USA) was used for fluorescence measurements. […] At first, the peroxidase-coupled continuous assay that detect the H2O2 generation rate was considered. It uses the Amplex Red reagent as the fluorogenic substrate for horseradish peroxidase.
By applying this method, hMAO activity assays were performed in K/Pi 0.1 M, EDTA 1 mM (total volume: 200 μL; pH 7.4, T = 37 °C), in the presence and in absence of various concentrations of the different compounds (0.2–20 μM and 2–50 μM in the case of hMAO–B and hMAO-A, respectively).
MAOs stock solutions were diluted with assay buffer in the presence or absence of the tested compound to obtain a final concentration of 0.005 mg/mL for MAO-A and 0.010 mg/mL for MAO-B; then, kynuramine (10–300 μM final concentration) was added to the assay solution. After 45–60 min of incubation at 37 °C, the reaction was stopped by the addition of 2 M NaOH (80 μL) and 480 μL of distilled water. Kynuramine deaminated by MAO spontaneously cyclizes to provide 4-hydroxyquinoline, the amount of which was determined by the fluorescence intensity of the peak of its emission spectra (λexc = 330 nm and λem 330–530 nm). Then, the rate of reaction was calculated using a specific calibration curve (in the presence of the same amount of the tested compound) built with the standard 4-hydroxyquinoline.
Under these experimental conditions, the Michaelis–Menten equation for rate of reaction, can be simplified as follows: V ≈ (Vmax/KM) [E]0[S]0 [49]. In the presence of an inhibitor, one or both the kinetic parameters, KM and Vmax, might be affected by its presence, depending on the inhibition mechanism. In particular, in the presence of a reversible inhibitor, both the kinetic parameters could be affected, and the apparent kinetic parameter would then become: KM I = KM,0 (1 + [I]/Ki)/(1 + [I]/(αKi)), and VmaxI = Vmax0/(1 + [I]/(αKi)), where α is the factor indicating how much the dissociation constant of the enzyme-substrate-I complex is different from that of the enzyme–I complex (also named Ki). Consequently, the ratio of the initial rate of reaction in the absence (Vo) and in the presence (VI) of the tested compound (Vo/VI) can be simplified to the ratio of (Vmax/KM)o/(Vmax/KM)I ≈ (1 + [I]/Ki).
To study the mechanism of inhibition, the steady-state kinetic parameters (Vmax and Km) of MAO-A and MAO-B were determined by performing experiments at different substrate concentrations and in the absence and presence of different concentrations of the tested compound. Vmax and Km were calculated by fitting the Michaelis–Menten equation to the experimental data (initial rate of reactions vs. substrate concentrations), with Sigma Plot software, version 9.0 (Jandel Scientific, San Rafael, CA, USA).

For assay [2], the system named is Nrf2 nuclear translocation in SH-SY5Y cells. Briefly: Nrf2 nuclear translocation (Western blot of nuclear extracts). Format: cell-based, human. From the text: In physiological conditions, the repressor Keap1 traps Nrf2 at the cytosolic level, preventing the activation of Nrf2 pathway. The disruption of Keap1–Nrf2 interaction allows for Nrf2 nuclear translocation, thus resulting in the transcriptional activation of its target cytoprotective genes. […] We and others have previously developed several compounds bearing caffeic and ferulic fragments able to activate Nrf2 in terms of the up-regulation of Nrf2 expression, translocation into the nucleus and induction of the Nrf2-dependent defensive genes, with (pro)electrophilic features emerging as key players. Herein, to analyse the effect of the new molecules on the Nrf2 downstream cascade, the ability of compounds 1–5 to increase Nrf2 nuclear translocation was preliminary evaluated as a pivotal step in Nrf2 signalling activation (Figure 6). Based on MAO-B inhibitory potency and cell toxicity assay, compounds were studied in SH-SY5Y human neuroblastoma cells at the concentration of 5 μM. Given the high structural analogy with our derivatives, we selected the well-known Nrf2 inducer CAPE [37, 38] as the reference compound, and verified its ability to induce Nrf2 nuclear translocation at different concentrations, ranging from 5 µM to 50 µM in our experimental model (Figure S6). Nrf2 nuclear content was assessed via Western blot analysis. […] Consistently, data from literature highlight discrepancies about pioglitazone-mediated Nrf2 activation, indicating its ability to activate Nrf2 in longer timeframes and different in vitro and in vivo experimental conditions. […] The preliminary docking performed on human Keap-1 confirms the excellent positioning of compound 2 within the BTB domain pocket, where cysteine 151 is located (see Figure S5). […] Particularly, all these new molecules hold the characteristic (pro)electrophilic fragments, which however, in this case, resulted to be insufficient to activate Nrf2, as reported for other ferulic and caffeic derivatives. In this regard, optimal target interaction might play a major role, but further biological investigations are needed to fully clarify the mechanism of Nrf2 activation and the effect on the downstream expression of cytoprotective genes.
SH-SY5Y cells (5 × 106) were seeded in […] dishes and treated for 3 h with 5 μM compounds; afterward, the medium was removed, and cells were washed twice with ice-cold PBS. Cells were subsequently homogenized 15 times using a glass−glass Dounce homogenizer in 0.32 M sucrose, buffered with 20 mM Tris- HCl (pH 7.4), containing 2 mM EDTA, 0.5 mM EGTA, 50 mM β-mercaptoethanol and 20 μg/mL leupeptin, apotrinin and pepstatin. The homogenate was centrifuged at 300× g for 5 min to obtain the nuclear fraction. An aliquot of the nuclear fraction was used for protein assay via the Bradford method, whereas the remaining was boiled for 5 min after dilution with sample buffer and subjected to polyacrylamide gel electrophoresis and immunoblotting, as described.
For orientation: Immunoblotting shows a protein as a band on a membrane.

Turning to `O=C(/C=C/c1ccc(O)c(O)c1)OCCc1ccccc1` [CAPE, caffeic acid phenethyl ester, reference compound], the “SI (selectivity index)” value in assay [1] is reported as 6.7. The Ki in assay [1] (hMAO-B Ki, kynuramine [S] = 10 µM, pH 7.4, 37 °C, mean ± S.D.) is 1.8 ± 0.2 µM. Besides, the Nrf2 nuclear translocation result in assay [2] (5 µM and 20 µM, 3 h) is on record as “induced Nrf2 nuclear translocation”.

With `O=C(/C=C/c1ccc(O)c(O)c1)Oc1ccc(CC2SC(=O)NC2=O)cc1` (centres unmarked) [Compound 2, 4-((2,4-Dioxothiazolidin-5-yl)methyl)phenyl (E)-3-(3,4-Dihydroxyphenyl)acrylate], in assay [1], the “SI (selectivity index)” value is given as 66. In assay [1], the “mechanism of hMAO-B inhibition” value is “mixed inhibition”. The Ki in assay [1] (global fit analysis, mixed inhibition model, read-out: KEI (inhibition constant for the free enzyme)) is 0.45 ± 0.8 µM; in assay [1] (kynuramine [S] = 10 µM, pH 7.4, 37 °C, mean ± S.D., read-out: hMAO-B Ki), 0.5 µM and 0.53 µM; in assay [1] (read-out: hMAO-B Ki) it was 0.53 µM. The Nrf2 nuclear translocation entry in assay [2] (5 μM, 3 h) is reported as “most active; also recorded: strongly induced Nrf2 translocation into the nucleus”.

For the compound `CCc1ccc(CCOc2ccc(CC3SC(=O)NC3=O)cc2)nc1` (centres unmarked) [Pioglitazone, reference compound], the “mechanism of hMAO-B inhibition” value in assay [1] was “selective and competitive inhibitor”. Besides, in assay [2] (until concentrations higher than 50 µM), the Nrf2 nuclear translocation entry is “not able to induce Nrf2 nuclear translocations”.
